Measurements reported in patent publication US20060276549A1, “Combination and use of drugs” (priority 2005, published 2006).
Like-named read-outs stand apart in the source and are kept apart here.

Assays:
[1] = test system: DIO mice; test: DEXA analysis of body composition in DIO mice; format: in vivo; conditions: Day 28
Protocol: (§1) Mice were individually housed for study two weeks prior to start of treatment. Mice were weighed one week later (experiment day -7), and conditioned to oral gavage and daily vehicle administration by daily oral treatment at 15:00 h with Tween-80 (Sigma Chemical, St. Louis, Mo.) 1% vehicle in water (V/V). All doses were given in 4 ml/kg body weight volume of vehicle. All compound doses are expressed as base equivalent weights per unit body weight. Mice were reweighed on day -1 to ensure that weight loss plateaued and was not progressive. Mice were stratified into groups of equal mean body weight, with n=20 mice per group. On days 0 to 28, mice were dosed by oral gavage at 15:00 h (q.d.). Sibutramine hydrochloride monohydrate and rimonabant hydrochloride were administered p.o. by gavage for 27 to 28 days at 15:00 h, at doses of 15 mg/kg and 3 mg/kg base, respectively, once a day (q.d.). Compounds were formulated in Tween-80 vehicle. For combination treatment, the individual compound formulations were mixed together immediately prior to dosing, and given as a single gavage. Food and body weights were determined on days 0 prior to treatment, and on days 1, 4, 7, 11, 14, 18, 21, 25, 27 and 28. Ten mice per group were fasted overnight on day 27. […] Plasma was analysed for insulin, leptin, free fatty acids, triglycerides, total cholesterol, HDLc and LDLc. […]

[2] = test system: Diet-induced Obese (DIO) Mice; test: Body weight loss in diet-induced obese (DIO) mice; format: in vivo, C57BL/6J mice; conditions: for body weight loss at day 14: p.o. q.d., sibutramine 15 mg/kg, rimonabant 3 mg/kg base
Protocol: C57BL/6J mice (age 5-6 weeks) were obtained from Jackson Labs (Bar Harbor, Me.) and housed in groups of 5 under conditions of 12 hours lights on, 12 hours lights off (on at 04:00 h), with food and water available ad libitum. At the beginning of the study, mice were administered a purified low fat diet (D12450Bi, 10 kcal % fat, 3.8 kcal/g) or a high fat content diet (D12492i, 60 kcal % fat, 5.2 kcal/g), both obtained from Research Diets Inc. (New Brunswick, N.J.) for approximately 16 weeks. The fat content of these diets was a mixture of lard and soybean oil.
as §1

[3] = cited from earlier work
[4] = test system: Zucker fa/fa rats; test: Rat model of snacking behavior with isobologram analysis; format: in vivo; conditions: for ED50: Rattus norvegicus, read-out: ED50 for reduction of snack intake (50% reduction in Snack Consumption); for effect on snack intake / snacking: oral dosing before snack
Protocol: Non-fasted male Zucker fa/fa −/− rats (450 gr) were habituated for 3 weeks to a twice weekly, 3 hour exposure to 60% fat diet (RDI #12492) achieving an average snack intake of 12 to 16 g. Compounds or vehicle (1% Tween 80/water) were dosed orally, 1 ml/kg, n=12-15/group, 1 hour before exclusive presentation of the snack. Snack intake and subsequent 21-hour intake of standard chow (Purina 5008) were measured. […] It is unclear from these individual studies, however, if combination treatment would result in an even greater effect on snacking behavior as reflected in a shift of the ED50 to lower doses. Therefore, an isobologram analysis was performed as described in Example 6
Dose response curves for sibutramine hydrochloride monohydrate and rimonabant hydrochloride were generated in the rat snacking model and ED50 and 95% confidence limits derived from the linear part of the curve by linear regression. Two combination studies in snacking (n=12 rats/group) were performed; the first with a fixed dose of sibutramine HCl (5 mg base/kg) co-administered with rimonabant at 1, 2.5, and 5 mg base/kg, and the second with rimonabant fixed at 4 mg base/kg with sibutramine at 2, 4, and 8 mg base/kg, plus vehicle control. ED50 values were derived from the combination studies and plotted on the isobologram. The ED50 is the dose where there is a 50% reduction in Snack Consumption. […] The rimonabant hydrochloride ED50 is 8 mg/kg.

[5] = test system: Diet-induced Obese (DIO) Mice; test: Prevention of body weight re-gain in DIO mice; format: in vivo, C57BL/6J mice; conditions: DIO mice re-introduced to high fat food; qd dosing, day 0-7; vs HF, LF, to HF control
Protocol: C57BL/6J mice (age 5-6 weeks) were obtained from Jackson Labs (Bar Harbor, Me.) and housed in groups of 5 under conditions of 12 hours lights on, 12 hours lights off (on at 04:00 h), with food and water available ad libitum. At the beginning of the study, mice were administered a purified low fat diet (D12450Bi, 10 kcal % fat, 3.8 kcal/g) or a high fat content diet (D12492i, 60 kcal % fat, 5.2 kcal/g), both obtained from Research Diets Inc. (New Brunswick, N.J.) for approximately 16 weeks. The fat content of these diets was a mixture of lard and soybean oil. Groups of mice that had been on the high fat diet were switched back to the low fat diet for approximately 4 weeks prior to their being re-introduced to either the high fat food (weight re-gain) or maintained on low fat food. Approximately 5 days prior to the onset of dosing study (Day -5), mice were acclimated to handling and conditioned to oral gavage and daily vehicle administration by daily oral treatment at 15:00 h with Tween-80 (Sigma Chemical, St. Louis, Mo.) 1% vehicle in water (VN). All doses were given in 4 ml/kg body weight volume of vehicle. At the start of drug treatment, mice were dosed qd at 15:00 hr each day for 7 days, and body weights and food intake were evaluated.

Structure (SMILES)	lean mass (DEXA) vs. DIO controls [1]	body weight loss at day 14 [2] [%]	food intake ([3]; literature studies, initially)	reduction of body weight ([3]; over a 6 month or a 1 year period)	ED50 ([4]; po) [mg/kg]	effect on snack intake / snacking [4]	body weight re-gain [5]	further weight loss compared with sibutramine treated animals ([2]; Day 14-28)	ED50 ([4]; Zucker fa/fa rats, oral, 1 hour before 3 hour 60% fat snack) [mg/kg]
CC(C)CC(N(C)C)C1(c2ccc(Cl)cc2)CCC1 (stereo not drawn) [sibutramine, N,N-dimethyl-1-[1-(4-chlorophenyl)cyclobutyl]-3-methylbutylamine]	statistical decreases in lean mass	14	potently inhibits food intake	about 10%	24	effective in reducing snack intake	prevent body weight re-gain	–	–
Cc1c(C(=O)NN2CCCCC2)nn(-c2ccc(Cl)cc2Cl)c1-c1ccc(Cl)cc1 [rimonabant, 1-H-pyrazole-3-carboxamide, 5-(4-chlorophenyl)-1-(2,4-dichlorophenyl)-4-methyl-N-1-piperidinyl]	–	15	–	–	–	effective in reducing snack intake	prevent body weight re-gain	approximately 4%	8
